Common to all, as to test: Kinase panel profiling at 1 µmol/L (MSA or IMAP), percentage inhibition
Common to all, as to format: biochemical

Test [1] has as its target panel of 255 wild-type kinases (Homo sapiens, UniProt P48730). As to conditions: kinase CK1δ; 1 µmol/L single concentration; read-out: %-inhibition at 1 µmol/L, CK1δ.
Test [2] deals with T1, panel of 255 wild-type kinases (Homo sapiens, UniProt P41743).
T1 sequence (P41743 1-596): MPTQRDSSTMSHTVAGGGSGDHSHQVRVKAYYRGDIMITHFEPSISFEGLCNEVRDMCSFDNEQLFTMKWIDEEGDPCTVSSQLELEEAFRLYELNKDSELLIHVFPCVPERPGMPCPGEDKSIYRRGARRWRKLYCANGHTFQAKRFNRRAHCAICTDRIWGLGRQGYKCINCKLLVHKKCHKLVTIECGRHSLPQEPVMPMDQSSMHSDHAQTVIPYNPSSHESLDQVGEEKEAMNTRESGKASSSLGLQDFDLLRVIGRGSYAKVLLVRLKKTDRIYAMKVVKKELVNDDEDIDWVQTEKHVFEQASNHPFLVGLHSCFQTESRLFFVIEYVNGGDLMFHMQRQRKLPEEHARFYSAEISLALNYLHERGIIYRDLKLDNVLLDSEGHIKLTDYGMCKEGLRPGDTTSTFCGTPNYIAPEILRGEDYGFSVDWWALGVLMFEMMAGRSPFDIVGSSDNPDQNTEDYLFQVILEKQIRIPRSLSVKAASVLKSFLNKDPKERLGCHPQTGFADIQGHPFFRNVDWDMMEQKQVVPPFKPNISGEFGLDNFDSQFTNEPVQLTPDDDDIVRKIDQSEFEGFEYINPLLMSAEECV
As to conditions: kinase PKCι; 1 µmol/L single concentration; read-out: %-inhibition at 1 µmol/L, PKCι.

Test [3] concerns the target T2, panel of 255 wild-type kinases (Homo sapiens, UniProt Q96L34).
T2 sequence (Q96L34 1-752): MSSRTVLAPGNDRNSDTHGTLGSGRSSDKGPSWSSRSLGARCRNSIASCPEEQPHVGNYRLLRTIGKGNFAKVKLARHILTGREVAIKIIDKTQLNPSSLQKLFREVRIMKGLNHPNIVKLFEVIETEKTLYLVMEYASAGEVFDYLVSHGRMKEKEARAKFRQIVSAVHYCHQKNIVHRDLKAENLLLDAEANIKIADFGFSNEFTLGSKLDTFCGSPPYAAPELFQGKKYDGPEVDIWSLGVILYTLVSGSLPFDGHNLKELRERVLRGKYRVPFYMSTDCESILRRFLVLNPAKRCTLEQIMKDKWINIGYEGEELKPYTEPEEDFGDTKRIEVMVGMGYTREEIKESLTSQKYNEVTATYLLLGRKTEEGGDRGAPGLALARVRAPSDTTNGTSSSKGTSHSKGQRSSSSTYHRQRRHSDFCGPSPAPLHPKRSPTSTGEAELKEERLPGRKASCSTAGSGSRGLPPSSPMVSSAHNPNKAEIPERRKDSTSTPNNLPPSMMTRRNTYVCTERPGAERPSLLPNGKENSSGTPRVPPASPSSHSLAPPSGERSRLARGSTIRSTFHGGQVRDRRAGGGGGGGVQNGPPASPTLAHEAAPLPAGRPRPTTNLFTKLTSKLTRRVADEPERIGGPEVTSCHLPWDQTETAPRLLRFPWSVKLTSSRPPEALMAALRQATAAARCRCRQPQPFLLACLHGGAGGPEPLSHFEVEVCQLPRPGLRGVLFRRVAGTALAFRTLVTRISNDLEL
As to conditions: MARK4; 1 µmol/L single concentration; read-out: %-inhibition, MARK4.

Test [4] has as its target panel of 255 wild-type kinases (Homo sapiens, UniProt P49840). As to conditions: kinase GSK3α; 1 µmol/L single concentration; read-out: %-inhibition at 1 µmol/L, GSK3α.
In test [5] the target is panel of 255 wild-type kinases (Homo sapiens, UniProt P24941). As to conditions: 1 µmol/L single concentration.
For test [6], the target named is panel of 255 wild-type kinases (Homo sapiens, UniProt P22607). As to conditions: kinase FGFR3; 1 µmol/L single concentration; read-out: %-inhibition at 1 µmol/L, FGFR3.
In test [7] the target is panel of 255 wild-type kinases (Homo sapiens, UniProt Q13627). As to conditions: kinase DYRK1A; 1 µmol/L single concentration; read-out: %-inhibition at 1 µmol/L, DYRK1A.
In test [8] the target is T3, panel of 255 wild-type kinases (Homo sapiens, UniProt O00418).
T3 sequence (O00418 1-725): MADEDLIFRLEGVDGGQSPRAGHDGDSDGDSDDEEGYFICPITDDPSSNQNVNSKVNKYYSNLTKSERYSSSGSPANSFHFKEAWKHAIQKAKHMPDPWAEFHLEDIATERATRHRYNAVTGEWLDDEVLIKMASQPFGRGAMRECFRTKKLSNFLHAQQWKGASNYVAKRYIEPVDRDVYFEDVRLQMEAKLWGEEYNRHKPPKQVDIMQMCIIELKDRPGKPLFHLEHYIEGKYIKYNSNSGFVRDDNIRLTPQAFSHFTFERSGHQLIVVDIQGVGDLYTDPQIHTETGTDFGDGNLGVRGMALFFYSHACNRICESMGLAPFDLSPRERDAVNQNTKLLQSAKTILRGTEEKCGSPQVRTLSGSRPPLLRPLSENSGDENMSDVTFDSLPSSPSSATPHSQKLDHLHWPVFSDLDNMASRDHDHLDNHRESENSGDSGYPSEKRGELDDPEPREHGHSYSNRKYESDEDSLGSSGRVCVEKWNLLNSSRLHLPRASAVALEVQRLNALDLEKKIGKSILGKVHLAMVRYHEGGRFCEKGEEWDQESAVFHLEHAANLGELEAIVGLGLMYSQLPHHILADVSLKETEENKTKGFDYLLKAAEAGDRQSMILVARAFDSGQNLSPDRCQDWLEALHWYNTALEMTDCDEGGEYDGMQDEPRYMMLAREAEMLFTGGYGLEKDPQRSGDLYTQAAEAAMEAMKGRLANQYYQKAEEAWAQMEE
As to conditions: kinase EEF2K; 1 µmol/L single concentration; read-out: %-inhibition at 1 µmol/L, EEF2K.

Test [9] concerns the target panel of 255 wild-type kinases (Homo sapiens, UniProt Q9H422). As to conditions: kinase HIPK3; 1 µmol/L single concentration; read-out: %-inhibition at 1 µmol/L, HIPK3.

The values below come from paper PMC9516332 (Frontiers in Oncology, 2022).

Like-named read-outs stand apart in the source and are kept apart here.

With `C=CC(=O)N1CCC([C@@H]2CCNc3c(C(N)=O)c(-c4ccc(Oc5ccccc5)cc4)nn32)CC1` [zanubrutinib], the inhibition at 1 µM in [1] was -4%; in test [2], -8%; in test [3], -7.42%; in [4] it was -7%; in [5] (CDK2/CycA2 kinase assay, read-out: %-inhibition CDK2/CycA2) it was -2.82%; in test [5] (CDK2/CycE1 kinase assay, read-out: %-inhibition CDK2/CycE1), -15%. The inhibition at 1 µM is 4.61% in test [6], -4.37% in test [7], 0.514% in test [8] and -2.42% in [9].
